Laboratory results reported in patent US9409866B2, “Pyridine-2-amides useful as CB2 agonists” (Hoffmann-La Roche Inc., priority 2012, dated 2016).
Where two headings read alike, the source gives them in different places.

What was measured:
[1] = target: human CB1 receptors (Homo sapiens (Human), UniProt P21554); assay: functional cAMP assay, CHO cells expressing human CB1; assay type: cell-based
Method in brief: (§1)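 Compound exposure lasted 30 min at 30 °C in IBMX (1 mM)-containing Krebs Ringer bicarbonate buffer, applied to human CB1- or CB2-expressing CHO cells. Lysates were read by time-resolved FRET cAMP detection, converted via cAMP standard curve (10 μM–0.13 nM), and EC50 values calculated.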

[2] = target: human CB2 receptors (Homo sapiens (Human), UniProt P34972); assay: functional cAMP assay, CHO cells expressing human CB2; assay type: cell-based
Chain of human CB2 receptors (P34972 whole entry): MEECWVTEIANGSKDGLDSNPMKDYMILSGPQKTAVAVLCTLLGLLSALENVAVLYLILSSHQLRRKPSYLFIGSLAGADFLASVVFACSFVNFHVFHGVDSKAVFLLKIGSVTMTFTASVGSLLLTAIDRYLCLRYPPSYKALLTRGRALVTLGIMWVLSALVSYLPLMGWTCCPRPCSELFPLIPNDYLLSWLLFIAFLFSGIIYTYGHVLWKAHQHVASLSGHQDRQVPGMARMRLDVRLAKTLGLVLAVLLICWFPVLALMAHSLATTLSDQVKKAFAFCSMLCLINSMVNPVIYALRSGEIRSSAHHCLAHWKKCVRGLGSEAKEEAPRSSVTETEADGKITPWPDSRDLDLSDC
Method in brief: as §1

[3] = Human CB1 EC50 (uM), functional cAMP assay, CHO cells expressing human CB1
[4] = functional cAMP assay, CHO cells expressing human CB1; read-out: Human CB1 EC50

Chain of human CB1 receptors (P21554 whole entry): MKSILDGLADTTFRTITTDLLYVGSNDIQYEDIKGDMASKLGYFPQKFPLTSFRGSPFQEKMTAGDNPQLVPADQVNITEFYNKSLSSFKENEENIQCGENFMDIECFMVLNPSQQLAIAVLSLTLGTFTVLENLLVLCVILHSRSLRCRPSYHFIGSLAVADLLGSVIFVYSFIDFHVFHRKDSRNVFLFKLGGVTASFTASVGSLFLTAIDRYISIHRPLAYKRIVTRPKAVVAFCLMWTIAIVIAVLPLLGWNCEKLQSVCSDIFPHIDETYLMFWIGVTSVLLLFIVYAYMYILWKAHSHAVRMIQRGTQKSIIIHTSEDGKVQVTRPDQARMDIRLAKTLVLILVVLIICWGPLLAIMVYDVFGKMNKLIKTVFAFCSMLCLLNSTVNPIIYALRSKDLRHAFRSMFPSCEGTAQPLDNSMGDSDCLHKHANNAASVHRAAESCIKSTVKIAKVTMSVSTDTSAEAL

Work on `Cc1nc([C@](C)(NC(=O)c2cc(OCC(F)(F)F)c(N3CC(F)(F)C3)cn2)C2CC2)no1` (single isomer, unassigned; enantiomer a) [Example 87, 5-(3,3-Difluoro-azetidin-1-yl)-4-(2,2,2-trifluoro-ethoxy)-pyridine-2-carboxylic acid [1-cyclopropyl-1-(5-methyl-[1,2,4]oxadiazol-3-yl)-ethyl]-amide (enantiomer A)] yielded an EC50 [1, 3] of over 10 µM and an EC50 ([2]; Human CB2 EC50 (uM)) of 0.0568 µM.
For `CNC(=O)[C@@H](NC(=O)c1cc(OC2COC2)c(Cl)cn1)C(C)(C)C` [Example 23, 5-Chloro-4-(oxetan-3-yloxy)-pyridine-2-carboxylic acid ((S)-2,2-dimethyl-1-methylcarbamoyl-propyl)-amide], the EC50 [1, 4] was over 10 µM and the EC50 ([2]; read-out: Human CB2 EC50) was 0.205 µM.
`O=C(N[C@@H](c1cccnc1)C(F)(F)F)c1cc(OCC2CC2)c(Cl)cn1` [Example 22, 5-Chloro-4-cyclopropylmethoxy-pyridine-2-carboxylic acid ((S)-2,2,2-trifluoro-1-pyridin-3-yl-ethyl)-amide] was tested, and the EC50 [1, 4] was over 10 µM and the EC50 ([2]; read-out: Human CB2 EC50) was 0.0057 µM.
`Cc1nc(C(C)(CS(C)(=O)=O)NC(=O)c2cc(O[C@@H](C)C(F)(F)F)c(C3CCC3)cn2)no1` (stereo partly drawn) [Example 118, 5-cyclobutyl-N-[2-(5-methyl-1,2,4-oxadiazol-3-yl)-1-methylsulfonylpropan-2-yl]-4-[(2S)-1,1,1-trifluoropropan-2-yl]oxypyridine-2-carboxamide] gave an EC50 [1, 4] of over 10 µM and an EC50 ([2]; read-out: Human CB2 EC50) of 0.0017 µM.
For `CC(C)C[C@H](NC(=O)c1cc(-c2cccc(Cl)c2)c(Cl)cn1)C(N)=O` [Example 3, 5-Chloro-4-(3-chloro-phenyl)-pyridine-2-carboxylic acid ((S)-1-carbamoyl-3-methyl-butyl)-amide], the EC50 [1, 4] was over 10 µM and the EC50 ([2]; read-out: Human CB2 EC50) was 0.466 µM.
For `Cc1nc(C(C)(CC2CC2)NC(=O)c2cc(OCC(F)(F)F)c(C3(F)COC3)cn2)no1` (stereo not drawn) [Example 131, N-[1-cyclopropyl-2-(5-methyl-1,2,4-oxadiazol-3-yl)propan-2-yl]-5-(3-fluorooxetan-3-yl)-4-(2,2,2-trifluoroethoxy)pyridine-2-carboxamide], the EC50 [1, 4] was over 10 µM and the EC50 ([2]; read-out: Human CB2 EC50) was 0.0263 µM.
`CC(CC(N)=O)(NC(=O)c1cc(OCCF)c(C2CC2)cn1)C1CC1` (single isomer, unassigned) [Example 271, N-[4-amino-2-cyclopropyl-4-oxobutan-2-yl]-5-cyclopropyl-4-(2-fluoroethoxy)pyridine-2-carboxamide] gave an EC50 ([1]; read-out: Human CB1 EC50; functional cAMP assay, CHO cells expressing human CB1) of over 10 µM and an EC50 ([2]; Human CB2 EC50 (uM)) of 0.0015 µM.
`Cc1nc(C(C)(NC(=O)c2cc(O[C@H](C)C(F)(F)F)c(C3CC3)cn2)C2CC2)no1` (single isomer, unassigned; epimer b) [Example 73] showed an EC50 [1, 4] of 0.017 µM and an EC50 ([2]; read-out: Human CB2 EC50) of 0.00025 µM.
In the case of `CC(C)C[C@H](CC(N)=O)NC(=O)c1cc(OCC(F)(F)F)c(C2CC2)cn1` (single isomer, unassigned; enantiomer a) [Example 65, 5-Cyclopropyl-4-(2,2,2-trifluoro-ethoxy)-pyridine-2-carboxylic acid (1-carbamoylmethyl-3-methyl-butyl)-amide (enantiomer A)], the EC50 [1, 3] is reported as over 10 µM and the EC50 ([2]; Human CB2 EC50 (uM)) is reported as 0.027 µM.
`CNC(=O)[C@@H](C)C(C)(C)NC(=O)c1cc(OCC2CC2)c(Cl)cn1` [Example 34, (−)-5-Chloro-4-cyclopropylmethoxy-pyridine-2-carboxylic acid (1,1-dimethyl-2-methylcarbamoyl-propyl)-amide] showed an EC50 [1, 4] of over 10 µM and an EC50 ([2]; read-out: Human CB2 EC50) of 0.268 µM.
With `Cc1cnc(C2(NC(=O)c3cc(OCC(F)(F)F)c(C4CC4)cn3)CCOCC2)s1` [Example 153, 5-cyclopropyl-N-[4-(5-methyl-1,3-thiazol-2-yl)oxan-4-yl]-4-(2,2,2-trifluoroethoxy)pyridine-2-carboxamide] the EC50 [1, 3] was over 10 µM and the EC50 ([2]; Human CB2 EC50 (uM)) was 0.0407 µM.
For `CC(C)(C)C(NC(=O)c1cc(OCC(F)(F)F)c(Cl)cn1)c1nccs1` (stereo not drawn) [Example 38, 5-Chloro-4-(2,2,2-trifluoro-ethoxy)-pyridine-2-carboxylic acid (2,2-dimethyl-1-thiazol-2-yl-propyl)-amide], the EC50 [1, 4] was over 10 µM and the EC50 ([2]; read-out: Human CB2 EC50) was 0.0408 µM.
